How the values were obtained:
[1] = Displacement of [3H]DTG from sigma2 receptor in rat PC12 cells measured after 90 mins by microbeta scintillation counting method; format: cell-based; conditions: pc-12
[2] = biological target: Mu-type opioid receptor (Homo sapiens, UniProt P35372); assay: Displacement of [3H]DAMGO from human MOR expressed in HEK cells after 90 mins by microbeta scintillation counting method; format: cell-based, HEK293
[3] = biological target: Sigma non-opioid intracellular receptor 1 (Cavia porcellus, UniProt Q60492); assay: Displacement of [3H]pentazocine from guinea pig sigma1 receptor measured after 90 mins by microbeta scintillation counting method
Sequence of Sigma non-opioid intracellular receptor 1 (Q60492 whole entry): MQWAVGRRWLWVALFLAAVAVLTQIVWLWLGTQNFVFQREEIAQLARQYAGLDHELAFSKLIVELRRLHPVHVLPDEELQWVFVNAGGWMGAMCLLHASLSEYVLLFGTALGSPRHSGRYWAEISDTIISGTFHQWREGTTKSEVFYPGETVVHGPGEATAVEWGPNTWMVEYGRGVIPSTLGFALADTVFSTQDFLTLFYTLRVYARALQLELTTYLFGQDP

[4] = test system: PC-12; assay: Selectivity ratio of Ki for sigma2 receptor in rat PC12 cells to Ki for guinea pig sigma1 receptor; format: cell-based
[5] = biological target: Kappa-type opioid receptor (Homo sapiens, UniProt P41145); assay: Displacement of [3H]U69593 from KOR (unknown origin) expressed in HEKT cells measured after 90 mins by microbeta scintillation counting method; format: cell-based
Sequence of Kappa-type opioid receptor (P41145 whole entry): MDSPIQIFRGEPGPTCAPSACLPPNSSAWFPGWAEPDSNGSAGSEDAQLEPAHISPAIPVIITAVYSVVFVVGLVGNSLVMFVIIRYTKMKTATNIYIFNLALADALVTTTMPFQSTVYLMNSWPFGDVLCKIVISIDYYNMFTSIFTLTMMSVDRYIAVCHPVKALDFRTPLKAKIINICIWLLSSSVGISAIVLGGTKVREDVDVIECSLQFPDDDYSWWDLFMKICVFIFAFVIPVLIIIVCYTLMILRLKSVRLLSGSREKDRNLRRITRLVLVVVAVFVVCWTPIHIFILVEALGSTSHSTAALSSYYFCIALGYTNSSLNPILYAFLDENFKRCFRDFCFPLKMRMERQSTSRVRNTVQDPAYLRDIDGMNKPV

[6] = biological target: Delta-type opioid receptor (Homo sapiens, UniProt P41143); assay: Displacement of [3H]DADLE from human DOR expressed in HEK cells measured after 90 mins by microbeta scintillation counting method; format: cell-based, HEK293
Sequence of Delta-type opioid receptor (P41143 whole entry): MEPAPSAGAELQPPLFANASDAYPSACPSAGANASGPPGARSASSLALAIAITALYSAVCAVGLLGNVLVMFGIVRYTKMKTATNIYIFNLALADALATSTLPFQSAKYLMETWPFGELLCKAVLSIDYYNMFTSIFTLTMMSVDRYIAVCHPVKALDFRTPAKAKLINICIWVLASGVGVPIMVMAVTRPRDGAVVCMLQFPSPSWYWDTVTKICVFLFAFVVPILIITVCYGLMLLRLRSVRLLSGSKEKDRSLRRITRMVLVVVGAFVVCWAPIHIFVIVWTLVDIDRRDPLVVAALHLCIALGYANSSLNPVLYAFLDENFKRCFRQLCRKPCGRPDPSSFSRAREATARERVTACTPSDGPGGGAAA

[7] = test system: PC-12; assay: Selectivity ratio of Ki for guinea pig sigma1 receptor to Ki for sigma2 receptor in rat PC12 cells; format: cell-based
[8] = biological target: T1, 5-hydroxytryptamine receptor 1A (Homo sapiens, UniProt P08908); assay: Displacement of [3H]Way100635 from human 5-HT1A receptor expressed in CHO cells measured after 90 mins by microbeta scintillation counting method; format: cell-based
T1 sequence (P08908 whole entry): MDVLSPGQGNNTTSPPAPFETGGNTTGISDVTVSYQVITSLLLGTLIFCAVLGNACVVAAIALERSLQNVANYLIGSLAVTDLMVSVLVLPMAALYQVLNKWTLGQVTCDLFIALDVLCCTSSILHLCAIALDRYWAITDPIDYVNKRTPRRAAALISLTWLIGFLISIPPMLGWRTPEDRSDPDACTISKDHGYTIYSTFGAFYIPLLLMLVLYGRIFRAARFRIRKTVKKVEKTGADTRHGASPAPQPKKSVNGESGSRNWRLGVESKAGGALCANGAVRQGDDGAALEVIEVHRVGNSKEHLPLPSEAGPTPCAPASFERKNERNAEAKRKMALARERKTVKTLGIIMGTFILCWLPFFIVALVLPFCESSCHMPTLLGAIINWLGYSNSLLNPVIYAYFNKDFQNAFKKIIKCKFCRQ

Sequence of Mu-type opioid receptor (P35372 whole entry): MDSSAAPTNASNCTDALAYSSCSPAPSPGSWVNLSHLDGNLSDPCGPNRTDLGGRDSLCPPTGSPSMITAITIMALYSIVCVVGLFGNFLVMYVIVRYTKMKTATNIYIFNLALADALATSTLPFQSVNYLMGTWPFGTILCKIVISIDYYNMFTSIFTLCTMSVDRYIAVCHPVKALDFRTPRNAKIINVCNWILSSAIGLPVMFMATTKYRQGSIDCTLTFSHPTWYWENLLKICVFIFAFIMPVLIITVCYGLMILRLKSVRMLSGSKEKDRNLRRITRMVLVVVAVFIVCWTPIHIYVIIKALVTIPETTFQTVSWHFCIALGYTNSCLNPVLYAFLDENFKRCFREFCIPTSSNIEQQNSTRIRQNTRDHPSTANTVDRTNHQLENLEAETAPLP

Row | Ki [2] | Ki [3] | Ki [5] | Ki [6] | Structure (SMILES) | Ki [1] | Ratio Ki [4] | Ratio Ki [7] | Ki [8]
1 | > 10000 nM | 3 nM | 638 nM | > 10000 nM | O=C1C[C@@H]2CCN(Cc3cccs3)[C@@H]3CCC[C@@H]([C@@H]23)[C@H]1Cc1ccccc1 | 44 nM | 14.7 | – | –
2 | > 10000 nM | 3 nM | > 10000 nM | > 10000 nM | COc1ccc(C[C@H]2C(=O)C[C@@H]3CCN(CCC(C)C)[C@@H]4CCC[C@H]2[C@@H]34)cc1 | 6 nM | 2 | – | –
3 | > 10000 nM | 2 nM | 711 nM | > 10000 nM | CC(C)CCN1CC[C@H]2CC(=O)[C@H](Cc3ccccc3)[C@H]3CCC[C@@H]1[C@H]23 | 3 nM | 1.5 | – | –
4 | > 10000 nM | 2 nM | > 10000 nM | > 10000 nM | COCCN1CC[C@H]2CC(=O)[C@H](Cc3ccccc3)[C@H]3CCC[C@@H]1[C@H]23 | 35 nM | 17.5 | – | –
5 | > 10000 nM | 1 nM | 3620 nM | > 10000 nM | CCCN1CC[C@H]2CC(=O)[C@H](Cc3ccccc3)[C@H]3CCC[C@@H]1[C@H]23 | 5 nM | 5 | – | –
6 | > 10000 nM | 5 nM | > 10000 nM | > 10000 nM | COc1ccc(C[C@H]2C(=O)C[C@@H]3CCN(C)[C@@H]4CCC[C@H]2[C@@H]34)cc1 | 251 nM | 50.2 | – | –
7 | > 10000 nM | 3 nM | 1400 nM | > 10000 nM | O=C1C[C@@H]2CCN(Cc3nccs3)[C@@H]3CCC[C@@H]([C@@H]23)[C@H]1Cc1ccccc1 | 270 nM | 90 | – | –
8 | > 10000 nM | 9 nM | > 10000 nM | > 10000 nM | CCCN1CC[C@H]2CC(=O)[C@H](Cc3ccc(OC)cc3)[C@H]3CCC[C@@H]1[C@H]23 | 29 nM | 3.2 | – | –
9 | > 10000 nM | 3 nM | 1230 nM | > 10000 nM | O=C1C[C@@H]2CCN(CC3CCCCC3)[C@@H]3CCC[C@@H]([C@@H]23)[C@H]1Cc1ccccc1 | 2 nM | 0.7 | – | –

Further lines, the compound ahead of its results:

Row | Structure (SMILES) | Ki [2] | Ki [3] | Ki [5] | Ki [6] | Ki [1] | Ratio Ki [4] | Ratio Ki [7] | Ki [8]
10 | CC[C@H]1C(=O)C[C@@H]2CCN(Cc3cccs3)[C@@H]3CCC[C@H]1[C@@H]23 | 892 nM | 6 nM | 1470 nM | > 10000 nM | 187 nM | 31.2 | – | –
11 | CCCN1CC[C@H]2c3cc4cc(Cl)ccc4nc3[C@H](CC)[C@H]3CCC[C@@H]1[C@@H]32 | > 10000 nM | 209 nM | 372 nM | > 10000 nM | 17 nM | 0.08 | 12.3 | –
12 | COc1ccc(C[C@H]2C(=O)C[C@@H]3CCN(CC4CCCCC4)[C@@H]4CCC[C@H]2[C@@H]34)cc1 | > 10000 nM | 10 nM | 1600 nM | > 10000 nM | 3 nM | 0.3 | 3 | –
13 | CCCN1CC[C@@H]2CC(=O)C[C@H]3CCC[C@H]1[C@H]32 | > 10000 nM | 345 nM | > 10000 nM | > 10000 nM | 663 nM | 1.9 | – | –
14 | CCCN1CC[C@H]2CC(=O)[C@H](CC)[C@H]3CCC[C@@H]1[C@H]23 | > 10000 nM | 11 to 12 nM | > 10000 nM | > 10000 nM | 230 to 401 nM | 20.9 | – | 4500 nM
15 | CCCCCCCN1CC[C@H]2CC(=O)[C@H](CC)[C@H]3CCC[C@@H]1[C@H]23 | 632 nM | 2 nM | > 10000 nM | > 10000 nM | 8 nM | 4 | – | –
16 | CC[C@H]1C(=O)C[C@@H]2CCN(Cc3nccs3)[C@@H]3CCC[C@H]1[C@@H]23 | > 10000 nM | 407 nM | > 10000 nM | > 10000 nM | 760 nM | 1.9 | – | –
17 | CC[C@H]1C(=O)C[C@@H]2CCN(CCC(C)C)[C@@H]3CCC[C@H]1[C@@H]23 | > 10000 nM | 4 nM | 1280 nM | > 10000 nM | 6 nM | 1.5 | – | –
18 | CCCN1CC[C@H]2c3cc4ccccc4nc3[C@H](CC)[C@H]3CCC[C@@H]1[C@@H]32 | > 10000 nM | 70 nM | 493 nM | > 10000 nM | 27 nM | 0.4 | 2.6 | –
19 | CCCN1CC[C@H]2C[C@@H](O)[C@H](CC)[C@H]3CCC[C@@H]1[C@H]23 | > 10000 nM | 55 nM | > 10000 nM | > 10000 nM | 183 nM | 3.3 | – | –
20 | CC[C@H]1C(=O)C[C@@H]2CCN(C(=O)NCc3ccc(Cl)cc3)[C@@H]3CCC[C@H]1[C@@H]23 | > 10000 nM | 722 nM | > 10000 nM | > 10000 nM | 1910 nM | 2.6 | – | –
21 | CCCN1CC[C@H]2c3cc4cccc(OC)c4nc3[C@H](CC)[C@H]3CCC[C@@H]1[C@@H]32 | > 10000 nM | 171 nM | 1690 nM | > 10000 nM | 63 nM | 0.4 | 2.7 | –
22 | CC[C@H]1C(=O)C[C@@H]2CCN(CCOC)[C@@H]3CCC[C@H]1[C@@H]23 | > 10000 nM | 26 nM | > 10000 nM | > 10000 nM | 423 nM | 16.3 | – | –
23 | CC[C@H]1C(=O)C[C@@H]2CCN(S(=O)(=O)c3ccc(C)cc3)[C@@H]3CCC[C@H]1[C@@H]23 | > 10000 nM | > 10000 nM | > 10000 nM | > 10000 nM | > 10000 nM | – | – | –
24 | CC[C@H]1C(=O)C[C@@H]2CCN(C)[C@@H]3CCC[C@H]1[C@@H]23 | > 10000 nM | 137 nM | > 10000 nM | > 10000 nM | > 5930 nM | > 43.3 | – | –
25 | O=C(CCCN1CCC(O)(c2ccc(Cl)cc2)CC1)c1ccc(F)cc1 [HALOPERIDOL] | – | – | – | – | 14 nM | – | – | –
26 | CCCN1CC[C@H]2CC3=Nc4ccccc4[C@]3(CC)[C@H]3CCC[C@@H]1[C@H]23 | > 10000 nM | 7 nM | > 10000 nM | > 10000 nM | 76 nM | 10.9 | – | –
27 | CCCN1CC[C@H]2CC(=O)C[C@H]3CCC[C@@H]1[C@@H]32 | > 10000 nM | 126 nM | > 10000 nM | > 10000 nM | 127 nM | 1 | – | –
28 | CC[C@H]1C(=O)C[C@@H]2CCN(CC3CCCCC3)[C@@H]3CCC[C@H]1[C@@H]23 | 1900 nM | 4 nM | 278 nM | > 10000 nM | 3 nM | 0.8 | – | –
29 | CC[C@H]1c2nc3ccccc3cc2[C@@H]2CCN(C)[C@@H]3CCC[C@H]1[C@H]32 | > 10000 nM | 189 nM | 3490 nM | > 10000 nM | 86 nM | 0.5 | 2.2 | –
